Assay results taken from US7569574B2, “Purine derivatives, the preparation thereof and their use as pharmaceutical compositions” (Boehringer Ingelheim Pharma GmbH & Co. KG, priority 2002, dated 2009).
Structures can show the parent of a compound that is named as a salt.

tested on: not listed separately; test: Tolerability after oral administration to rats; assay type: in vivo; conditions: 30 mg/kg

SMILES	toxic side effects or changes in the animals' behaviour
Cn1c(NCc2ccccc2)nc2nc(N3CCCC(N)C3)n(Cc3ccccc3)c2c1=O (stereo not shown) [Example 1, 8-(3-amino-piperidin-1-yl)-7-benzyl-2-benzylamino-1-methyl-1,7-dihydro-purin-6-one]	no toxic side effects or changes in the animals' behaviour could be detected

biological target: T1, DPP-IV (Homo sapiens, UniProt P27487); test: DPP-IV assay with Caco-2 cell extract as DPP IV source, AFC substrate, fluorescence; assay type: biochemical; conditions: extract of human colon carcinoma cell line Caco-2; substrate 100 μM; 60 minutes at ambient temperature; read-out: DPP IV inhibition IC50
T1 construct: an extract of human colon carcinoma cell line Caco-2 is used as the DPP IV source; endogenous in cells; host or cells: Caco-2 (human colon carcinoma), differentiated to induce DPP-IV expression; Nonidet-P40 solubilised extract
Experimental: The differentiation of the cells in order to induce the DPP-IV expression was carried out as described by Reiher et al. in an article entitled “Increased expression of intestinal cell line Caco-2”, which appeared in Proc. Natl. Acad. Sci. Vol. 90, pages 5757-5761 (1993). The cell extract was obtained from cells solubilised in a buffer (10 mM Tris HCl, 0.15 M NaCl, 0.04 t.i.u. aprotinin, 0.5% Nonidet-P40, pH 8.0) by centrifuging at 35,000 g for 30 minutes at 4° C. (to remove cell debris).
The DPP-IV assay was carried out as follows:
50 μl substrate solution (AFC; AFC is amido-4-trifluoromethylcoumarin), final concentration 100 μM, were placed in black microtitre plates. 20 μl of assay buffer (final concentrations 50 mM Tris HCl pH 7.8, 50 mM NaCl, 1% DMSO) was pipetted in. The reaction was started by adding 30 μl of solubilised Caco-2 protein (final concentration 0.14 μg of protein per well). The test substances to be investigated were typically added prediluted in 20 μl, and the volume of assay buffer was then reduced accordingly. The reaction was carried out at ambient temperature, incubating for 60 minutes. Then the fluorescence was measured in a Victor 1420 Multilabel Counter, the excitation wavelength being 405 nm and the emission wavelength being 535 nm. Blank readings (corresponding to 0% activity) were obtained in mixtures without any Caco-2 protein (volume replaced by assay buffer), control values (corresponding to 100% activity) were obtained in mixtures with no substance added.

T1 sequence (P27487 whole entry): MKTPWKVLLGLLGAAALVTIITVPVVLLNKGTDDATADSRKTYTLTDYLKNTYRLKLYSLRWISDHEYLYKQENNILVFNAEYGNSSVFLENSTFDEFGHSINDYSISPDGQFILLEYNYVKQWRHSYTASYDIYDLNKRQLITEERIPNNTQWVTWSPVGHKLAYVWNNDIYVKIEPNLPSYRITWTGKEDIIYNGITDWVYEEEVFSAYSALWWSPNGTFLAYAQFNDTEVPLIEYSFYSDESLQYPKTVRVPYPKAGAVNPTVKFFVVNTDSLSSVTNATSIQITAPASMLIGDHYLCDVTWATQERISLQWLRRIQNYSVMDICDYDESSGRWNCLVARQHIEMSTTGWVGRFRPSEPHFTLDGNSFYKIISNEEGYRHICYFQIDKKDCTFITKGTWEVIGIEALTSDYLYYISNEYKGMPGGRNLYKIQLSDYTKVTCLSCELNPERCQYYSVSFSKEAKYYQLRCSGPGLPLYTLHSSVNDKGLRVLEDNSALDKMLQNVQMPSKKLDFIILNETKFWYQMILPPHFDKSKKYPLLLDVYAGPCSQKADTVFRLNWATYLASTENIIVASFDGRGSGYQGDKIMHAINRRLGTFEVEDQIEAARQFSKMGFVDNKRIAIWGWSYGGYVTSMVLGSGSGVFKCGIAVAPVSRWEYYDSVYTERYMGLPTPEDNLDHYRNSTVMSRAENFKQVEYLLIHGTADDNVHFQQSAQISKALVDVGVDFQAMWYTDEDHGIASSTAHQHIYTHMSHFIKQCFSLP

SMILES	IC50 [nM]
CN(C)c1nc2nc(N3CCCC(N)C3)n(Cc3ccccc3)c2c(=O)n1C (stereo not shown) [1(8), 8-(3-amino-piperidin-1-yl)-7-benzyl-2-dimethylamino-1-methyl-1,7-dihydro-purin-6-one trifluoroacetate]	213
Cn1c(N2CCCCC2)nc2nc(N3CCCC(N)C3)n(Cc3ccccc3)c2c1=O (stereo not shown) [1(7), 8-(3-amino-piperidin-1-yl)-7-benzyl-1-methyl-2-(piperidin-1-yl)-1,7-dihydro-purin-6-one hydrochloride]	434
CC(C)Nc1nc2nc(N3CCCC(N)C3)n(Cc3ccccc3)c2c(=O)n1C (stereo not shown) [1(3), 8-(3-amino-piperidin-1-yl)-7-benzyl-2-isopropylamino-1-methyl-1,7-dihydro-purin-6-one trifluoroacetate]	110
CC(C)=CCn1c(N2CCCC(N)C2)nc2ncn(Cc3cccc4ccccc34)c(=O)c21 (stereo not shown) [1(27), 8-(3-amino-piperidin-1-yl)-7-(3-methyl-but-2-en-1-yl)-1-[(naphthalen-1-yl)methyl]-1,7-dihydro-purin-6-one]	19
CC(C)=CCn1c(N2CCCC(N)C2)nc2nc(C)n(Cc3ccccc3)c(=O)c21 (stereo not shown) [1(25), 8-(3-amino-piperidin-1-yl)-1-benzyl-2-methyl-7-(3-methyl-but-2-en-1-yl)-1,7-dihydro-purin-6-one]	275
CC(C)=CCn1c(N2CCCC(N)C2)nc2nc(CCc3ccccc3)n(C)c(=O)c21 (stereo not shown) [1(12), 8-(3-amino-piperidin-1-yl)-1-methyl-7-(3-methyl-but-2-en-1-yl)-2-(2-phenylethyl)-1,7-dihydro-purin-6-one trifluoroacetate]	18
Cn1c(NC2CCCCC2)nc2nc(N3CCCC(N)C3)n(Cc3ccccc3)c2c1=O (stereo not shown) [1(5), 8-(3-amino-piperidin-1-yl)-7-benzyl-2-cyclohexylamino-1-methyl-1,7-dihydro-purin-6-one trifluoroacetate]	134
Cn1c(NCc2ccccc2)nc2nc(N3CCCC(N)C3)n(Cc3ccccc3)c2c1=O (stereo not shown) [Example 1, 8-(3-amino-piperidin-1-yl)-7-benzyl-2-benzylamino-1-methyl-1,7-dihydro-purin-6-one]	11
CC(C)=CCn1c(N2CCCC(N)C2)nc2nc(C)n(Cc3cccc4ccccc34)c(=O)c21 (stereo not shown) [1(26), 8-(3-amino-piperidin-1-yl)-2-methyl-7-(3-methyl-but-2-en-1-yl)-1-[(naphthalen-1-yl)methyl]-1,7-dihydro-purin-6-one]	40
COc1ccc(Cn2cnc3nc(N4CCCC(N)C4)n(CC=C(C)C)c3c2=O)c2ccccc12 (stereo not shown) [1(28), 8-(3-amino-piperidin-1-yl)-7-(3-methyl-but-2-en-1-yl)-1-[(4-methoxy-naphthalen-1-yl)methyl]-1,7-dihydro-purin-6-one]	57
Cn1c(NCC2CCCCC2)nc2nc(N3CCCC(N)C3)n(Cc3ccccc3)c2c1=O (stereo not shown) [1(6), 8-(3-amino-piperidin-1-yl)-7-benzyl-2-cyclohexylmethylamino-1-methyl-1,7-dihydro-purin-6-one trifluoroacetate]	48
CNc1nc2nc(N3CCCC(N)C3)n(Cc3ccccc3)c2c(=O)n1C (stereo not shown) [1(4), 8-(3-amino-piperidin-1-yl)-7-benzyl-1-methyl-2-methylamino-1,7-dihydro-purin-6-one trifluoroacetate]	58
Cc1nc2nc(N3CCCC(N)C3)n(Cc3ccccc3)c2c(=O)n1C (stereo not shown) [1(11), 8-(3-amino-piperidin-1-yl)-7-benzyl-1-methyl-2-methyl-1,7-dihydro-purin-6-one trifluoroacetate]	54
Cn1c(C#N)nc2nc(N3CCCC(N)C3)n(Cc3ccccc3)c2c1=O (stereo not shown) [1(24), 8-(3-amino-piperidin-1-yl)-7-benzyl-2-cyano-1-methyl-1,7-dihydro-purin-6-one trifluoroacetate]	113

Next, values leading:

IC50 [nM]	SMILES
158	CSc1nc2nc(N3CCCC(N)C3)n(Cc3ccccc3)c2c(=O)[nH]1 (stereo not shown) [1(14), 8-(3-amino-piperidin-1-yl)-7-benzyl-2-methylsulphanyl-1,7-dihydro-purin-6-one hydrochloride]
24	Cn1c(NCc2ccc(F)cc2)nc2nc(N3CCCC(N)C3)n(Cc3ccccc3)c2c1=O (stereo not shown) [1(1), 8-(3-amino-piperidin-1-yl)-7-benzyl-2-(4-fluoro-benzylamino)-1-methyl-1,7-dihydro-purin-6-one trifluoroacetate]
157	Cn1c(CC(=O)c2ccccc2)nc2nc(N3CCCC(N)C3)n(Cc3ccccc3)c2c1=O (stereo not shown) [1(23), 8-(3-amino-piperidin-1-yl)-7-benzyl-1-methyl-2-(2-oxo-2-phenyl-ethyl)-1,7-dihydro-purin-6-one]
48	NC1CCCN(c2nc3ncn(CC(=O)c4ccccc4)c(=O)c3n2Cc2ccccc2)C1 (stereo not shown) [1(22), 8-(3-amino-piperidin-1-yl)-7-benzyl-1-(2-oxo-2-phenyl-ethyl)-1,7-dihydro-purin-6-one trifluoroacetate]
42	Cn1c(NCCc2ccccc2)nc2nc(N3CCCC(N)C3)n(Cc3ccccc3)c2c1=O (stereo not shown) [1(2), 8-(3-amino-piperidin-1-yl)-7-benzyl-1-methyl-2-[(2-phenylethyl)amino]-1,7-dihydro-purin-6-one trifluoroacetate]
61	Cn1c(N)nc2nc(N3CCCC(N)C3)n(Cc3ccccc3)c2c1=O (stereo not shown) [1(9), 2-amino-8-(3-amino-piperidin-1-yl)-7-benzyl-1-methyl-1,7-dihydro-purin-6-one trifluoroacetate]
58	NC1CCCN(c2nc3nc(SCc4ccccc4)[nH]c(=O)c3n2Cc2ccccc2)C1 (stereo not shown) [1(15), 8-(3-amino-piperidin-1-yl)-7-benzyl-2-benzylsulphanyl-1,7-dihydro-purin-6-one trifluoroacetate]
